Laboratory results taken from ChEMBL document CHEMBL4020808, “Inhibitors of DNA Gyrase-GyrB Subunit and/or Topoisomerase IV-ParE Subunit May Treat Infectious Diseases Caused by Antibiotic-Resistant Bacteria” (2017).
Values after ≈ are worked out from the molar mass of the structure shown.

Tests used:
Assay type in all cases: functional
Enterococcus faecalis = assay: Antimicrobial activity against Enterococcus faecalis ATCC 29212 after 20 hrs by broth microdilution method; conditions: ATCC 29212, 20 h
Streptococcus pneumoniae = assay: Antimicrobial activity against Streptococcus pneumoniae ATCC 49619 after 20 hrs by broth microdilution method; conditions: ATCC 49619, 20 h
Haemophilus influenzae = assay: Antimicrobial activity against Haemophilus influenzae ATCC 49247 after 20 hrs by broth microdilution method; conditions: ATCC 49247, 20 h
Staphylococcus aureus = assay: Antimicrobial activity against Staphylococcus aureus ATCC 29213 after 20 hrs by broth microdilution method; conditions: ATCC 29213, 20 h
Clostridioides difficile = assay: Antimicrobial activity against Clostridioides difficile ATCC 43255 under anaerobic condition for 42 to 48 hrs by agar dilution method

Work on `CCO[C@H]1CN(c2nnc(C(C)O)s2)CC[C@H]1NC(=O)c1nc(Cl)c(CC)[nH]1` (some centres undefined) yielded an MIC (Enterococcus faecalis) of 0.25 µg/mL (≈ 0.583 µM), an MIC (Streptococcus pneumoniae) of 0.25 µg/mL (≈ 0.583 µM) and an MIC (Haemophilus influenzae) of 2 µg/mL (≈ 4.66 µM). The MIC (Staphylococcus aureus) was 0.5 µg/mL (≈ 1.17 µM) and the MIC (Clostridioides difficile) was 0.03 µg/mL (≈ 0.0699 µM).
`CCc1[nH]c(C(=O)N[C@@H]2CCN(c3nnc([C@H](C)O)s3)C[C@@H]2OC)nc1Cl` showed an MIC (Enterococcus faecalis) of 0.25 µg/mL (≈ 0.603 µM), an MIC (Streptococcus pneumoniae) of 0.25 µg/mL (≈ 0.603 µM) and an MIC (Haemophilus influenzae) of 1 µg/mL (≈ 2.41 µM). It also gave an MIC (Staphylococcus aureus) of 0.5 µg/mL (≈ 1.21 µM) and an MIC (Clostridioides difficile) of 0.125 µg/mL (≈ 0.301 µM).
In the case of `CCc1[nH]c(C(=O)N[C@@H]2CCN(c3nnc([C@@H](C)O)s3)C[C@@H]2OC)nc1Cl`, the MIC (Enterococcus faecalis) was 0.25 µg/mL (≈ 0.603 µM), the MIC (Streptococcus pneumoniae) was 0.25 µg/mL (≈ 0.603 µM) and the MIC (Haemophilus influenzae) was 1 µg/mL (≈ 2.41 µM). The MIC (Staphylococcus aureus) was 0.5 µg/mL (≈ 1.21 µM) and the MIC (Clostridioides difficile) was 0.06 µg/mL (≈ 0.145 µM).
In the case of `CCc1[nH]c(C(=O)N[C@@H]2CCN(c3nnc([C@@H](O)CO)s3)C[C@@H]2OC)nc1Cl`, the MIC (Staphylococcus aureus) was 4 µg/mL (≈ 9.28 µM) and the MIC (Clostridioides difficile) was 0.125 µg/mL (≈ 0.29 µM).
Work on `CCc1[nH]c(C(=O)N[C@@H]2CCN(c3nnc(C(C)(C)O)s3)C[C@@H]2OC)nc1Cl` yielded an MIC (Enterococcus faecalis) of 0.25 µg/mL (≈ 0.583 µM), an MIC (Streptococcus pneumoniae) of 0.25 µg/mL (≈ 0.583 µM) and an MIC (Haemophilus influenzae) of 0.5 µg/mL (≈ 1.17 µM). For the same compound, the MIC (Staphylococcus aureus) was 0.25 µg/mL (≈ 0.583 µM) and the MIC (Clostridioides difficile) was 0.06 µg/mL (≈ 0.14 µM).
Work on `CCc1[nH]c(C(=O)N[C@@H]2CCN(c3nnc([C@@](C)(O)CO)s3)C[C@@H]2OC)nc1Cl` yielded an MIC (Staphylococcus aureus) of 1 µg/mL (≈ 2.25 µM) and an MIC (Clostridioides difficile) of 0.06 µg/mL (≈ 0.135 µM).
